Test results from patent US20060194259A1, “Method for isolating an allosteric effector of a receptor” (priority 2002, published 2006).

Experiments:
[1] = test system: cells not expressing the EGFP-NK2R receptor; experiment: Calcium response on cells not expressing the receptor; type: cell-based; design: key: ns: not significant; ?: uniterpretable
receptor EGFP-NK2R [2] = molecular target: T1, receptor EGFP-NK2R (Homo sapiens, UniProt P21452); experiment: cAMP production caused by NKA in HEK 293 cells expressing EGFP-NK2R; type: cell-based
T1 sequence (P21452 1-398): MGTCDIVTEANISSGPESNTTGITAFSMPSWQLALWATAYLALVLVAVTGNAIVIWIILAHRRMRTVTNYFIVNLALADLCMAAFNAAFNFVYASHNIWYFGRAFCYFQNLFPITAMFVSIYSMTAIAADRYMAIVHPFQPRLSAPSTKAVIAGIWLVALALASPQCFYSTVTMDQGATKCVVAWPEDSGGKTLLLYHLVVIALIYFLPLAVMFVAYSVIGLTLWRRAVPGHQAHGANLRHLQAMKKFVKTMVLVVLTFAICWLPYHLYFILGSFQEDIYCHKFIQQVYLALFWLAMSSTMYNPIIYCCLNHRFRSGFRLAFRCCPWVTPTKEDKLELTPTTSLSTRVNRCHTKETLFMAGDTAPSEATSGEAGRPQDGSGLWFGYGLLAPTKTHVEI
Description: (§1) 30 mm 6-well cell-culture dishes are treated with collagen then seeded with 50,000 cells expressing the receptor EGFP-NK2R. […] The quantity of cAMP produced (expressed in pmoles/well) is determined according to a radioimmunological process described in Gicquiaux et al. (2002).

receptor EGFP-NK2R [3] = molecular target: T1, receptor EGFP-NK2R; experiment: Calcium response caused by NKA/NKA-Bo in HEK 293 cells expressing EGFP-NK2R (indo-1); type: cell-based; conditions: for time necessary to return to 50% of the maximum calcium response: 5 nM NKA, 91 seconds in the absence of 805
Description: The calcium responses caused by the agonist NKA-Bo on cells expressing the receptor EGFP-NK2R are recorded after charging the cells with the calcium-sensitive fluorescent probe: indo-1, according to the protocol described in Vollmer et al. (1999). The cells are put into suspension at a rate of 500,000 cells/ml in Hepes buffer and arranged in a spectrofluorimeter cuvette. The excitation wavelength is fixed at 338 nm and the emission is recorded at 400 and 470 nm. The responses traced are the ratios of the signals 400/470.

receptor EGFP-NK2R [4] = molecular target: T2, receptor EGFP-NK2R (UniProt P16610); experiment: cAMP production caused by NKA in HEK 293 cells expressing EGFP-NK2R; type: cell-based; design: 805 at 10 or 50 μM; NKA alone; fused on or other part: EGFP fused to the receptor; conditions: read-out: inhibition constant KI of the maximum response of cAMP induced by the NKA; FIG. 9C
T2 sequence (P16610 1-390): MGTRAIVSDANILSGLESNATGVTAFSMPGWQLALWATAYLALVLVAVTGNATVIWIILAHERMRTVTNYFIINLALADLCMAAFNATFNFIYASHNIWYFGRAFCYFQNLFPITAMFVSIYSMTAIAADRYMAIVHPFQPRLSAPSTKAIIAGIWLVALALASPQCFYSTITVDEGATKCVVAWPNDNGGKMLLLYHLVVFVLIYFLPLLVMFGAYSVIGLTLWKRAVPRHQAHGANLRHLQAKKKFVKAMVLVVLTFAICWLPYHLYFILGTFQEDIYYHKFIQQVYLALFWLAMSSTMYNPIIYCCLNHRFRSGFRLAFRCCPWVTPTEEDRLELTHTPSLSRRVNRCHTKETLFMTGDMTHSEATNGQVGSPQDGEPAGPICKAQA
Description: as §1

receptor EGFP-NK2R [5] = molecular target: T2, receptor EGFP-NK2R; experiment: Dissociation kinetics of NKA-Bo bound to EGFP-NK2R by fluorescence energy transfer; type: binding; design: % al (max): maximum value observed for the increase in amplitude of the rapid dissociation rate; ns = n; other: 20 nM of NK; % al (at 10 μM); other: compou; fused on or other part: EGFP fused to the receptor as FRET donor; conditions: for λ1/λ2 amplitudes (rapid/slow) of dissociation of NKA-Bo: 30/70 without 805
Description: Dissociation (FIG. 4B): HEK 293 cells expressing the receptor EGFP-NK2R are put into suspension at a concentration of 1,000,000 cells/ml in Hepes physiological buffer (in mM: 137.5 NaCl; 1.25 MgCl2; 1.25 CaCl2; 6 KCl; 5.6 glucose; 10 Hepes; 0.4 NaH2PO4; 1% BSA (w/v); pH 7.4) and arranged in a 1 ml cuvette equipped with a magnetic stirrer on the cuvette holder of a SPEX fluorolog 3 spectrofluorimeter.
(§2) The amplitude of each relaxation is then given by the adjustment of the experimental traces.

receptor EGFP-NK2R [6] = molecular target: T2, receptor EGFP-NK2R; experiment: Reversion of the binding of NKA-Bo to EGFP-NK2R by fluorescence energy transfer; design: % al (max): maximum value observed for the increase in amplitude of the rapid dissociation rate; ns = n; other: 20 nM of NK; % al (at 10 μM); other: compou; fused on or other part: EGFP fused to the receptor as FRET donor
Source text: as §2

receptor EGFP-NK2R [7] = molecular target: T2, receptor EGFP-NK2R; experiment: Dissociation of NKA4-10 TR7 from EGFP-NK2R by fluorescence energy transfer; type: binding; design: % al (max): maximum value observed for the increase in amplitude of the rapid dissociation rate; ns = n; other: 20 nM of NK; % al (at 10 μM); other: compou; fused on or other part: EGFP fused to the receptor as FRET donor
Description: The x-axis represents time in seconds and the y-axis represents fluorescence.
In the presence of 10 μM of 805, an acceleration of the dissociation is observed characterized by a modification of the amplitudes of the rapid (88%) and slow (12%) dissociation stages.

SMILES: N#CCN(Cc1ccccc1)Cc1ccc2ccccc2c1 [compound 805, [benzyl(2-naphthylmethyl)amino]acetonitrile]
- Ca Rep.: ability to evoke a calcium response on cells not expressing the EGFP-NK2R receptor ([1]; Table 1): ns
- Ca Rep. ([1]; Table 2): ns
- Rmax, maximum cAMP response to NKA relative to control (receptor EGFP-NK2R [2]; [805]=10 μM): 0.7
- Rmax, maximum cAMP response to NKA relative to control (receptor EGFP-NK2R [2]; [805]=50 μM): 0.3
- time necessary to return to 50% of the maximum calcium response (receptor EGFP-NK2R [3]; 805 10 μM): 105 s
- effect on the calcium response caused by NKA (receptor EGFP-NK2R [3]; 805 50 μM with 1, 5 and 1000 nM NKA): increases the duration of the calcium response
- time necessary to return to 50% of the maximum calcium response (receptor EGFP-NK2R [3]; 805 50 μM): 115 s
- Ki (receptor EGFP-NK2R [4]): ~6 µM
- λ1/λ2 amplitudes (rapid/slow) of dissociation of NKA-Bo (receptor EGFP-NK2R [5]; 1 μM 805): 35/65
- λ1/λ2 amplitudes (rapid/slow) of dissociation of NKA-Bo (receptor EGFP-NK2R [5]; 50 μM 805): 80/20
- % al (max): maximum value observed for the increase in amplitude of the rapid dissociation rate (receptor EGFP-NK2R [5]; Table 1, ns = not significant): 80%
- % al (at 10 μM) (receptor EGFP-NK2R [5]; compound 10 μM, T = 22 ± 1 is amplitude of rapid dissociation in the absence of effector): 29 (10 μM) %
- EC50 (receptor EGFP-NK2R [5]; read-out: EC50 (μM): concentration of compound causing a 50% increase (relative to the maximum value) in the percentage of the amplitude of the rapid dissociation rate, Table 1, dissociation of NKA-Bo from EGFP-NK2R, ns = not significant): 3 to 8 µM
- % bond reversion (at 10 μM) (receptor EGFP-NK2R [6]; compound 10 μM): 1 (10 μM) %
- IC50 (receptor EGFP-NK2R [6]; read-out: IC50 (μM): concentration of compound for which a 50% reduction is observed in the binding of NKA-Bo, 20 nM of NKA-Bo, EGFP-NK2R receptor): > 500 µM
- amplitude of the slow dissociation of NKA4-10 TR7 (receptor EGFP-NK2R [7]; 10 μM of 805, 10° C., 42% without 805): 12%
- amplitude of the rapid dissociation of NKA4-10 TR7 (receptor EGFP-NK2R [7]; 805 at 100 μM, approximately 40% in the absence of 805): up to 90%
- EC50 (receptor EGFP-NK2R [7]; read-out: concentration which causes a 50% increase in the amplitude of the rapid dissociation of NKA4-10 TR7 (apparent affinity), 10° C.): ~20 µM
